Test results as given in patent US8586755B2, “Substituted nicotinamides as KCNQ2/3 modulators” (Grünenthal GmbH, priority 2009, dated 2013).
pEC50: −log10 of the molar value.

Assays:
[1] = target: T1, KCNQ2/3 channels (Homo sapiens, UniProt O43525+O43526); assay: Fluorescence assay using a voltage sensitive dye (fluorimetry); format: cell-based; conditions: CHO-K1 cells expressing KCNQ2/3 channels; for pEC50: agonistic activity; for Emax: read-out: Fluorimetry % efficacy (retigabine 50 μM = 100%)
T1 construct: expressed in transfected cells
How it was run: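 Agonist EC50s come from the F2 vs F1 fluorescence comparison, F2 taken at the peak after KCl depolarisation (92 mM final) and F1 after 30 min compound exposure at room temperature. Assay uses KCNQ2/3-expressing CHO-K1 cells stained 45 min with a red voltage-sensitive dye in pH 7.4 ES buffer.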

[2] = tested on: Sprague-Dawley rats; assay: Low-intensity tail flick in the rat; format: in vivo
Description: Low-Intensity Tail Flick in the Rat
The antinociceptive effectiveness of the test substance towards an acute, noxious thermal stimulus was studied in the focal ray (tail flick) test in the rat according to the method of D'Amour and Smith (J. Pharm. Exp. Ther. 72, 74 79 (1941)). Male Sprague-Dawley rats (breeder: Janvier, Le Genest St. Isle, France) weighing from 200 to 250 g were used for this purpose. The animals were accommodated individually in special test compartments and the base of the tail was exposed to the focused ray of an analgesia meter (model 2011, Rhema Labortechnik, Hofheim, Germany). 10 animals were used per group. Before a substance according to the invention was administered, the withdrawal latency (time from switching on of the focal ray to the sudden withdrawal of the tail) was determined twice at an interval of five minutes and the mean value was defined as the control latency time. The intensity of the focal ray was chosen so that the control latency time was 7 to 9 seconds. Measurement of the withdrawal latency was then repeated 10, 20, 30 and 60 minutes after peroral administration of substance. The antinociceptive action of the test substance was determined as the increase in the withdrawal latency time according to the following formula: MPE[%]=[(T1−T0)/(T2−T0)]×100 where: T0=control latency time before administration of substance, T1=latency time after administration of substance, T2=maximum exposure time to the focal ray (30 seconds), MPE=maximum possible effect.
Variance analysis (repeated measures ANOVA) was used to test for statistically significant differences between the substance group and the vehicle group. The level of significance was set at ≦0.05.

[3] = po, MPE, read-out: Low-intensity tail flick rat p.o. % effect (dose [mg/kg])

Compound	pEC50 [1]	Emax ([1]; retigabine 50 μM = 100%) [%]	Fluorimetry % efficacy (retigabine 50 μM = 100%) ([1]; retigabine 50 μM = 100%) [%]	inhibition in vivo at 21.5 mg/kg ([2]; po, dose 21.5 mg/kg, MPE, read-out: Low-intensity tail flick rat p.o. % effect (dose [mg/kg])) [%]	inhibition in vivo at 4.64 mg/kg [2, 3] [%]	Low-intensity tail flick rat p.o. ED50 [2]	inhibition in vivo at 10 mg/kg ([2]; po, dose 10.0 mg/kg, MPE, read-out: Low-intensity tail flick rat p.o. % effect (dose [mg/kg])) [%]
O=C(NCC1C2CCC1CC2)c1cccnc1SCCC(F)(F)c1ccc(F)cc1 (stereo not drawn) [compound 164, N-(7-Bicyclo[2.2.1]heptanyl-methyl)-2-[[3,3-difluoro-3-(4-fluorophenyl)-propyl]sulfanyl]-pyridine-3-carboxylic acid amide]	7.49	287	–	–	20	–	–
CC(C)CCNC(=O)c1cccnc1SCCC(F)(F)c1ccc(F)cc1 [compound 169]	7.72	–	224	–	–	ED50 2.7 mg/kg	–
CCCCNC(=O)c1cccnc1SCCC(F)(F)c1ccc(F)cc1 [compound 170, N-Butyl-2-[[3,3-difluoro-3-(4-fluorophenyl)-propyl]sulfanyl]-pyridine-3-carboxylic acid amide]	7.62	229	–	–	20	–	–

Now from value to compound, other results behind:

pEC50 [1]	Emax ([1]; retigabine 50 μM = 100%) [%]	Fluorimetry % efficacy (retigabine 50 μM = 100%) ([1]; retigabine 50 μM = 100%) [%]	Compound	inhibition in vivo at 21.5 mg/kg ([2]; po, dose 21.5 mg/kg, MPE, read-out: Low-intensity tail flick rat p.o. % effect (dose [mg/kg])) [%]	inhibition in vivo at 4.64 mg/kg [2, 3] [%]	Low-intensity tail flick rat p.o. ED50 [2]	inhibition in vivo at 10 mg/kg ([2]; po, dose 10.0 mg/kg, MPE, read-out: Low-intensity tail flick rat p.o. % effect (dose [mg/kg])) [%]
6.57	224	–	O=C(NCC1CCCCO1)c1cccnc1SCCCc1ccc(F)cc1 (stereo not drawn) [compound 134, 2-[3-(4-Fluorophenyl)-propylsulfanyl]-N-(tetrahydro-pyran-2-yl-methyl)-pyridine-3-carboxylic acid amide]	40	–	–	–
7.33	224	–	O=C(NCC1CCCCO1)c1cccnc1SCCC(F)(F)c1ccc(F)cc1 (stereo not drawn) [compound 180, 2-[[3,3-Difluoro-3-(4-fluorophenyl)-propyl]sulfanyl]-N-(tetrahydro-pyran-2-yl-methyl)-pyridine-3-carboxylic acid amide]	–	–	–	64
